According to ChEMBL document CHEMBL2163275, “The lipogenesis pathway as a cancer target” (J Med Chem, 2011):
Blank lines part the entries; values can stand above or below the molecule they belong to.

Experiments:
Fatty acid synthase [1] = target: T1, Fatty acid synthase (Homo sapiens, UniProt P49327); experiment: Inhibition of FASN in human SKBR3 cells; format: cell-based, SK-BR-3
Fatty acid synthase [2] = target: T1, Fatty acid synthase; experiment: Reversible inhibition of human recombinant FASN ketoreductase site
Acetyl-CoA carboxylase 1 = Acetyl-CoA carboxylase 1 (Homo sapiens, UniProt Q13085); experiment: Inhibition of human ACC1 using acetyl coA as substrate and [14C]NaHCO3 incubated for 5 mins prior to substrate addition by liquid scintillation counting
Acetyl-CoA carboxylase 2 = Acetyl-CoA carboxylase 2 (Homo sapiens, UniProt O00763); experiment: Inhibition of human ACC2 using acetyl coA as substrate and [14C]NaHCO3 incubated for 5 mins prior to substrate addition by liquid scintillation counting
Fatty acid synthase [3] = target: T1, Fatty acid synthase; experiment: Antagonist activity at recombinant FASN thioesterase domain by fluorogenic assay; format: functional
ATP-citrate synthase [4] = target: T2, ATP-citrate synthase (Rattus norvegicus, UniProt P16638); experiment: Competitive inhibition of rat liver ACLY using citrate as substrate by spectrophotometric analysis
T2 sequence (P16638 whole entry): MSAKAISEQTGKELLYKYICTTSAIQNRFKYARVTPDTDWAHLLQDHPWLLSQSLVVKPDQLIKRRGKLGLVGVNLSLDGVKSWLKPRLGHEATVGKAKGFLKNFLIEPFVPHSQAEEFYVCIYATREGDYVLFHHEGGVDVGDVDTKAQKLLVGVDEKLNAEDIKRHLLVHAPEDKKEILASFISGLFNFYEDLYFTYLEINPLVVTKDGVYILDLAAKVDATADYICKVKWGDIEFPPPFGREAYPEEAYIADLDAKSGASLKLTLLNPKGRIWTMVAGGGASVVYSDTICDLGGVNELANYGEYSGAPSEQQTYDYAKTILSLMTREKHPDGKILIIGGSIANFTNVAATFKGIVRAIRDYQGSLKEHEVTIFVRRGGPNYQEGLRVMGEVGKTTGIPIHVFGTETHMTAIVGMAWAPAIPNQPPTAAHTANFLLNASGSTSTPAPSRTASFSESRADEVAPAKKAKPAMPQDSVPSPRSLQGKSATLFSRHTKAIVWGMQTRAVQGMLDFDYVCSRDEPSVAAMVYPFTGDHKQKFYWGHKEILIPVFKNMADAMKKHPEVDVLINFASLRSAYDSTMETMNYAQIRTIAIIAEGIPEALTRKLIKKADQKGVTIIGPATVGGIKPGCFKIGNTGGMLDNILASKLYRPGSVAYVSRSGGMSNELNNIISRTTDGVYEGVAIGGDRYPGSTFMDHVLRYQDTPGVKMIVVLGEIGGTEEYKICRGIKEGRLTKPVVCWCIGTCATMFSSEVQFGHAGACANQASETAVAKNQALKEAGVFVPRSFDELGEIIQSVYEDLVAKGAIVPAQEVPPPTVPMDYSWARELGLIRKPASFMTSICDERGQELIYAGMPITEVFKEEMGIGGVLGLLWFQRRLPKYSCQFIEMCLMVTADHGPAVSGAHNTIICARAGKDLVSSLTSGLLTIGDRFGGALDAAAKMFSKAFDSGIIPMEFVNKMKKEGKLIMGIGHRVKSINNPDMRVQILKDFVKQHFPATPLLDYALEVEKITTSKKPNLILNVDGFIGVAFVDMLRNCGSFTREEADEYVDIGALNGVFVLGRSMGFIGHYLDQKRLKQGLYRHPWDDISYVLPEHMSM

[5] = Inhibition of rat liver ACC
ATP-citrate synthase [6] = target: T2, ATP-citrate synthase; experiment: Competitive inhibition of rat liver ACLY using CoA as substrate by spectrophotometric analysis
Fatty acid synthase [7] = target: T3, Fatty acid synthase (Gallus gallus, UniProt P12276); experiment: Inhibition of chicken liver FASN after 3 hrs
Fatty acid synthase [8] = target: T3, Fatty acid synthase; experiment: Inhibition of chicken liver FASN ketoreductase activity
BGC-823 = experiment: Cytotoxicity against human BGC823 cells; format: functional, cell-based
[9] = Inhibition of duck liver FASN; design: species or system Anas platyrhynchos
ATP-citrate synthase [10] = target: T2, ATP-citrate synthase; experiment: Competitive inhibition of rat liver ACLY using ATP as substrate by spectrophotometric analysis
Fatty acid synthase [11] = target: T1, Fatty acid synthase; experiment: Inhibition of FASN in human HepG2 cells; format: cell-based
Fatty acid synthase [12] = target: Fatty acid synthase (Rattus norvegicus, UniProt P12785); experiment: Inhibition of FASN in rat liver
[13] = Inhibition of Escherichia coli FabB

T1 sequence (P49327 whole entry): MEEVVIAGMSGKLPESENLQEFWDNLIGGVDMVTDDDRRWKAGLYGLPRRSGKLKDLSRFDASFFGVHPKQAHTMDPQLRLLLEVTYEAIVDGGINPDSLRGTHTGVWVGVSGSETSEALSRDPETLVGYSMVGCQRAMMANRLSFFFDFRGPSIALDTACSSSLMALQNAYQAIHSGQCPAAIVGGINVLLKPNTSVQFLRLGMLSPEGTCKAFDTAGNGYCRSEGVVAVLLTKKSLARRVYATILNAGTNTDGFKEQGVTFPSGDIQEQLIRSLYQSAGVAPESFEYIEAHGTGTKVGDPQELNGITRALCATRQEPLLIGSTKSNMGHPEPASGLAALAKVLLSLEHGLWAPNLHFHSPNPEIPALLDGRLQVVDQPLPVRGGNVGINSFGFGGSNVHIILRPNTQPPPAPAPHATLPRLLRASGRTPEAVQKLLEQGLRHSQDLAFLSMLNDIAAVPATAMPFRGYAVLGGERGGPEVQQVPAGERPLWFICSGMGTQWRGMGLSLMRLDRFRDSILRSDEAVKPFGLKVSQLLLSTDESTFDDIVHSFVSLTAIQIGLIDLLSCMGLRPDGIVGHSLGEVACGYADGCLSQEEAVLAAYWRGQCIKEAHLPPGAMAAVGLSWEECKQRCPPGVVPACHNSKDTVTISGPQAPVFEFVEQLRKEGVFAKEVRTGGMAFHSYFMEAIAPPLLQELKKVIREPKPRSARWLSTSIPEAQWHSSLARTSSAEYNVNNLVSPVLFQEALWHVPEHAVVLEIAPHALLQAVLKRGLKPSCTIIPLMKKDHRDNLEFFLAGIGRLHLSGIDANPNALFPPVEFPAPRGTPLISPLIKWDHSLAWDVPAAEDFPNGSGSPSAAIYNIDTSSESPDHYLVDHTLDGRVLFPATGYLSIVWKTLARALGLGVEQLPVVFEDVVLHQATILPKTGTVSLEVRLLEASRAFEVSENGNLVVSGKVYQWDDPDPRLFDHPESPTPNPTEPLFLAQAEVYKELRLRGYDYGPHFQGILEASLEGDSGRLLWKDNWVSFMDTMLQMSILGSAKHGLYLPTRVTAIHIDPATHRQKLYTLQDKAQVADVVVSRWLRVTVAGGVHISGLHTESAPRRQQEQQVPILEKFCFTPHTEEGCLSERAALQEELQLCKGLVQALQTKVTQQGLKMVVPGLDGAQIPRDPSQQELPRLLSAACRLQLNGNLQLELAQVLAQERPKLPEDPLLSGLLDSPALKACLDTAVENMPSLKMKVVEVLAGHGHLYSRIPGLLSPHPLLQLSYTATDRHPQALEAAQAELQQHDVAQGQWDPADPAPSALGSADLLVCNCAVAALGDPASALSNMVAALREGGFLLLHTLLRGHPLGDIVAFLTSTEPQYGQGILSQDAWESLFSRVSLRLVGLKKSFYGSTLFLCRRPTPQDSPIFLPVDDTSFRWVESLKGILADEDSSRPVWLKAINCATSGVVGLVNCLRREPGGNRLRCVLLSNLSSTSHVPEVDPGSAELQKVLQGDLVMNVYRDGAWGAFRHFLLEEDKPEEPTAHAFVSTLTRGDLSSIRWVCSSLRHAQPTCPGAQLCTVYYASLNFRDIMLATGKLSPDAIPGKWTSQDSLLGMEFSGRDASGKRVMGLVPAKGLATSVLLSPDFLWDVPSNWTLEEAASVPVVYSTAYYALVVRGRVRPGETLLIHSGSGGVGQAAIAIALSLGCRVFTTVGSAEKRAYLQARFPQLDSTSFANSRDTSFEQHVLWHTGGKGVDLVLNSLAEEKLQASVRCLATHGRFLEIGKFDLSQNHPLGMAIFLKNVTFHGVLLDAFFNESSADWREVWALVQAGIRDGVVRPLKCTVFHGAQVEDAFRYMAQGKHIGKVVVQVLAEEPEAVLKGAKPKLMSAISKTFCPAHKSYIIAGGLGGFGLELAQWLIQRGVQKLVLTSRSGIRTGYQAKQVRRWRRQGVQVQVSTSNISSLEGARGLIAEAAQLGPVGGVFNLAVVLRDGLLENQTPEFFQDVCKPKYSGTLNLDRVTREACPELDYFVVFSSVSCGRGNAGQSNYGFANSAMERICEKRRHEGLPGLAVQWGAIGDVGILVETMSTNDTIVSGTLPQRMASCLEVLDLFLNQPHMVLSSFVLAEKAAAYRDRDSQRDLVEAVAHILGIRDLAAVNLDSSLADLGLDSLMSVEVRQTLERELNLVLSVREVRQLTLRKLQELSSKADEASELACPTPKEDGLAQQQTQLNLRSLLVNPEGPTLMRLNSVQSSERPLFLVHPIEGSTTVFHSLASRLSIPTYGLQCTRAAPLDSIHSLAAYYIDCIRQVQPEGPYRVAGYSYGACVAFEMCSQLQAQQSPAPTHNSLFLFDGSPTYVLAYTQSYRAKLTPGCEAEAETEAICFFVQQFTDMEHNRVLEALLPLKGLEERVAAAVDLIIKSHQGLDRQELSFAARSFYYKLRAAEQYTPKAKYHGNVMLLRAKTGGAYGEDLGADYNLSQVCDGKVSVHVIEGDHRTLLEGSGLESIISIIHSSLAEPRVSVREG
T3 sequence (P12276 whole entry): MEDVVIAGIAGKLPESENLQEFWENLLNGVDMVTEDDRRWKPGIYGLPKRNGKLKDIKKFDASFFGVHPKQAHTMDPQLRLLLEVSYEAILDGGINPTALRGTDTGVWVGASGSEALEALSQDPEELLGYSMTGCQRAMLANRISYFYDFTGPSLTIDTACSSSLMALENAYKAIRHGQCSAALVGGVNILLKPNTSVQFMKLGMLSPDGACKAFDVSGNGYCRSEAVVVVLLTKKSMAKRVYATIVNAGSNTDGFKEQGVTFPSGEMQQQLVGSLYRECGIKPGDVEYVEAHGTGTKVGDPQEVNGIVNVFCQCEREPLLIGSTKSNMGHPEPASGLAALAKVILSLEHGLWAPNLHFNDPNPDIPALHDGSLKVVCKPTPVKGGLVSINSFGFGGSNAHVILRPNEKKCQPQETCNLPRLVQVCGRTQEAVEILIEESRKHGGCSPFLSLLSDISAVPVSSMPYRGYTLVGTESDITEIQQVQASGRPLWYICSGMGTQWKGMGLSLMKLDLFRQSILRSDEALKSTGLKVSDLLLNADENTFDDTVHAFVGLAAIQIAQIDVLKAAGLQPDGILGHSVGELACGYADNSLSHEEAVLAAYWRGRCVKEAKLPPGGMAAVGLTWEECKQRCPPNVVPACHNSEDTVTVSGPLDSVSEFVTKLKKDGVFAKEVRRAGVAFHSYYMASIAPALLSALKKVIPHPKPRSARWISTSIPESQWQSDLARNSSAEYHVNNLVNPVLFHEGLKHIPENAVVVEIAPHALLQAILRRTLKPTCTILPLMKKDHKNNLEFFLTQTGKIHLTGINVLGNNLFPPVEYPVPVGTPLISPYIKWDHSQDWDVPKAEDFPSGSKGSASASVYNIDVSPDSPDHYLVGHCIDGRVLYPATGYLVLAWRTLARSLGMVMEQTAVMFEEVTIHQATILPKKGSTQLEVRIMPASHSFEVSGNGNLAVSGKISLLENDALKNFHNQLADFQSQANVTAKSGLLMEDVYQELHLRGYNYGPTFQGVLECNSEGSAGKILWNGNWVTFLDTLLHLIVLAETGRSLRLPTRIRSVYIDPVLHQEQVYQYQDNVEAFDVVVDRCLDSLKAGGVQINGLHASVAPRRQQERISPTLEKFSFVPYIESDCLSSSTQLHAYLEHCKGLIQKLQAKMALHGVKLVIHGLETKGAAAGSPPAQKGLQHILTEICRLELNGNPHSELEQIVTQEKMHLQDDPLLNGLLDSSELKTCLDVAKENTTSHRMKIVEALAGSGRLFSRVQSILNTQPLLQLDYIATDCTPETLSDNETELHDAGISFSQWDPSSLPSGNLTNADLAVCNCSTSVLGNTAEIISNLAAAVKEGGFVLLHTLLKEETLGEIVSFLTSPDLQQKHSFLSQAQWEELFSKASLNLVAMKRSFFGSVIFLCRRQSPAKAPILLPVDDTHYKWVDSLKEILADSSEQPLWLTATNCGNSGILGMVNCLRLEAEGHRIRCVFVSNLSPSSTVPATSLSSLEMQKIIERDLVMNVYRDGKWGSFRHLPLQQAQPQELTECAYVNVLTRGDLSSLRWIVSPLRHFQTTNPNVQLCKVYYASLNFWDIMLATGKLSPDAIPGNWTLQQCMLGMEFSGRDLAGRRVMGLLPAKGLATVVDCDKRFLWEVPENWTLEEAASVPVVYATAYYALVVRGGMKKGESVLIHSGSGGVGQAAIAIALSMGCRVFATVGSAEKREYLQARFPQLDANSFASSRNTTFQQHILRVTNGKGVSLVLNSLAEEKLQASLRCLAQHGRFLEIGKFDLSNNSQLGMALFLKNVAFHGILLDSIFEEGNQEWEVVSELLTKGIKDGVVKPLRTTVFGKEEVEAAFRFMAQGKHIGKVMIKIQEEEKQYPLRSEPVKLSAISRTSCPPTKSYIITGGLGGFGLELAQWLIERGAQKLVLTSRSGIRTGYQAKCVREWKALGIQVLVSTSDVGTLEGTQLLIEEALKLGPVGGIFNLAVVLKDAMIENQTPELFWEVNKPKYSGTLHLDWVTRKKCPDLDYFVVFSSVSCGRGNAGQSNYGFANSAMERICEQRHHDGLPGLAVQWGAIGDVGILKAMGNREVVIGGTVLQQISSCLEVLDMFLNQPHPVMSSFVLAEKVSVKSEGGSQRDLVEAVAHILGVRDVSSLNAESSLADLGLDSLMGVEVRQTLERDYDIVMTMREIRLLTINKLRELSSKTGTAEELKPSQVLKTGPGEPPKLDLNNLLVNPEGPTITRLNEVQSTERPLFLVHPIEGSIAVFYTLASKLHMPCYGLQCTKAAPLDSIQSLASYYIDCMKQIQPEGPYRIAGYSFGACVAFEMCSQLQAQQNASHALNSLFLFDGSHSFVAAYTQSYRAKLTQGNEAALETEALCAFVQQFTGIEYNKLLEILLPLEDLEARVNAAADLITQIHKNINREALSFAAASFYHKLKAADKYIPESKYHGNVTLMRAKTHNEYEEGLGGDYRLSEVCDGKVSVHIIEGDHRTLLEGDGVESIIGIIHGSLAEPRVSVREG

IC50 (Fatty acid synthase [1]): 100 µM
SMILES: CCCCC/C=C\C=C\CCCCCCCCC(=O)O

IC50 (Fatty acid synthase [2]): 0.0158 µM
SMILES: Cc1ccnc(NS(=O)(=O)c2ccc(NC(=O)Nc3ccc(S(=O)(=O)Nc4nccc(C)n4)cc3)cc2)n1

Ki (Fatty acid synthase [3]): 2.5 µM
SMILES: O=C1O[C@@H](CCc2ccccc2)[C@H]1Cc1ccccc1

Ki (ATP-citrate synthase [4]): 16 µM
Ki [5]: 70 µM
Ki (ATP-citrate synthase [6]): 3 µM
SMILES: CC(C)(CCCCCCCCCCC(C)(C)CC(=O)O)CC(=O)O

IC50 (Fatty acid synthase [11]): > 380 µM
IC50 (Fatty acid synthase [12]): > 951 µM
IC50 [13]: 1.9 µM
SMILES: C=C/C(C)=C/[C@@]1(C)SC(=O)C(C)=C1O [THIOLACTOMYCIN]

Continued, molecule first:

SMILES: CC(C)Oc1ccc(C2=NC(CSc3nc4ncccc4o3)CO2)cc1 (configuration not stated)
IC50 (Acetyl-CoA carboxylase 1): > 100 µM
IC50 (Acetyl-CoA carboxylase 2): 2.8 µM

SMILES: O=C(O[C@@H]1Cc2c(O)cc(O)cc2O[C@@H]1c1ccc(O)c(O)c1)c1cc(O)c(O)c(O)c1 [EPICATECHIN GALLATE]
IC50 (Fatty acid synthase [7]): 42 µM
IC50 (Fatty acid synthase [8]): 68 µM

SMILES: O=C(O[C@H]1O[C@@H]2COc3c(c4cc(O)c(O)c(O)c4c4c(O)c(O)c(O)cc34)O[C@H]2[C@H](OC(=O)c2cc(O)c(O)c(O)c2)[C@H]1OC(=O)c1cc(O)c(O)c(O)c1)c1cc(O)c(O)c(Oc2c(C(=O)O[C@@H]3O[C@@H]4COC(=O)c5cc(O)c(O)c(O)c5-c5c(cc(O)c(O)c5O)C(=O)O[C@H]4[C@@H]4OC(=O)c5cc(O)c(O)c(O)c5-c5c(cc(O)c(O)c5O)C(=O)O[C@@H]34)cc(O)c(O)c2O)c1 [GEMIN A]
IC50 (BGC-823): 40.4 µM
IC50 [9]: 0.21 µM

SMILES: C[C@@H]1C[C@H]2O[C@@H]2/C=C\C=C\C(=O)Cc2c(Cl)c(O)cc(O)c2C(=O)O1 [RADICICOL]
Ki (ATP-citrate synthase [4]): 13 µM
Ki (ATP-citrate synthase [10]): 7 µM
